Laboratory results reported in PMC8279492, “Quinolinonyl Non-Diketo Acid Derivatives as Inhibitors of HIV-1 Ribonuclease H and Polymerase Functions of Reverse Transcriptase” (Journal of Medicinal Chemistry, 2021).
Read-outs that look alike come from different tables or passages of the source.

How the values were obtained:
[1] = Compounds' toxicity, CellTiter 96 AQueous One Solution Cell Proliferation Assay; format: cell-based; conditions: human
Description: (§1) HIV-1 replication was monitored using HeLa-CD4-LTR-β-gal reporter cells as previously described.[69] Briefly, β-galactosidase activity was monitored 24 h post infection using a replication-competent HIV produced in-house (H9-laï coculture) and a serial dilution of molecules or an equivalent volume of DMSO. In parallel, compounds’ toxicity was determined at 24 h in the same cell line using CellTiter 96 AQueous One Solution Cell Proliferation Assay (Promega, France).

[2] = system: HIV-1 replication; assay: HIV-1 replication in HeLa-CD4-LTR-β-gal reporter cells; format: cell-based
Description: as §1

[3] = target: T1, HIV-1 RT-RDDP activity (Human immunodeficiency virus type 1 group M subtype B, UniProt P03366); assay: Polymerase assay (RNA-dependent DNA polymerase); format: biochemical
T1 construct: His-tagged p66/p51 HIV-1 RT group M subtype B; His; made in house; host or cells: Escherichia coli M15
Description: (§2) His-tagged p66/p51 HIV-1 RT group M subtype B coded in a p6HRT-prot plasmid was expressed in the Escherichia coli strain M15.[65] Heterodimeric RTs were expressed essentially and purified as described.[66]
The HIV-1 RT-associated RNA-dependent DNA polymerase activity was measured as described.[65] Briefly, the reaction was carried out in a black 96-well plate in a total volume of 25 μL. Serial dilutions of compounds were added to the reaction mix containing 60 mM Tris HCl buffer pH 8.1, 8 mM MgCl2, 60 mM KCl, 13 mM DTT, 2.5 mM poly(A)-oligo(dT), and […].

[4] = target: T2, HIV-1 RT-associated RNase H activity (Human immunodeficiency virus type 1 group M subtype B, UniProt P03366); assay: biochemical; format: biochemical
T2 construct: His-tagged p66/p51 HIV-1 RT group M subtype B; His; made in house; host or cells: Escherichia coli M15
Description: (11) and β-thujaplicinol (BTP) used as positive controls.
as §2
(§3) The HIV-1 RT-associated RNase H activity was measured as described.[68] Briefly, the reaction was carried out in a black 96-well plate in a total volume of 100 μL. […] Experiments were performed in duplicate and replicated at least two times. Data were analyzed as described.[36]

[5] = target: HIV-1 IN (Human immunodeficiency virus type 1 group M subtype B, UniProt P12497); assay: biochemical
Description: His-tagged NL4-3 IN was expressed from a pET15b plasmid in the E. coli BL21 pLys strain. Recombinant protein was purified as previously described[67] following a batch preparation on Ni-NTA beads (Qiagen, Paris, France).
Both oligonucleotides were purchased from Integrated DNA Technologies, Inc. (Coralville, IA), and the gel was purified in-house. ST reactions were performed by adding molecules or an equivalent volume of 100% dimethyl sulfoxide (DMSO, used as the drug solvent) to a mixture of 20 nM duplex DNA substrate and 400 nM IN in 50 mM MOPS pH 7.2, 7.5 mM MgCl2, and 14 mM 2-mercaptoethanol. Mixtures were incubated at 37 °C for 2 h, and the reaction was quenched by addition of an equal volume of loading buffer [formamide containing 1% sodium dodecyl sulfate (SDS), 0.25% bromophenol blue, and xylene cyanol]. […] Dried gels were visualized using a FLA5000 (Fuji Photo Film, Tokyo, Japan). Densitometric analyses were performed using ImageQuant 5.1 software from GE Healthcare.

[6] = target: RNase H; conditions: cited from earlier work
[7] = system: IN; conditions: cited from earlier work
[8] = target: T3, Q475A HIV-1 RT RNase H (Human immunodeficiency virus type 1 group M subtype B, UniProt P03366, Q1074A); assay: RNase H assay, point-mutant Q475A RT; format: biochemical
T3 construct: Amino acid substitutions were introduced into the p66 HIV-1 RT subunit of a HIV-1 RT; His; made in house; host or cells: Escherichia coli M15
Description: (§4) An activity curve was performed for all of the enzymes (Figure S1), and a concentration was chosen in the linear dose-response range to perform the enzymatic-inhibition assays.
(§5) Amino acid substitutions were introduced into the p66 HIV-1 RT subunit of a HIV-1 RT using a QuikChange mutagenesis kit, following the manufacturer’s instructions (Agilent Technologies Inc., Santa Clara, CA).
as §3

[9] = target: T4, K451A HIV-1 RT RNase H (Human immunodeficiency virus type 1 group M subtype B, UniProt P03366, K1050A); assay: RNase H assay, point-mutant K451A RT; format: biochemical
T4 construct: Amino acid substitutions were introduced into the p66 HIV-1 RT subunit of a HIV-1 RT; His; made in house; host or cells: Escherichia coli M15
Description: as §4, §5, §3

[10] = target: T5, Y501A HIV-1 RT RNase H (Human immunodeficiency virus type 1 group M subtype B, UniProt P03366, Y1100A); assay: RNase H assay, point-mutant Y501A RT; format: biochemical
T5 construct: Amino acid substitutions were introduced into the p66 HIV-1 RT subunit of a HIV-1 RT; His; made in house; host or cells: Escherichia coli M15
Description: as §4, §5, §3

[11] = target: T6, R448A HIV-1 RT RNase H (Human immunodeficiency virus type 1 group M subtype B, UniProt P03366, R1047A); assay: RNase H assay, point-mutant R448A RT; format: biochemical
T6 construct: Amino acid substitutions were introduced into the p66 HIV-1 RT subunit of a HIV-1 RT; His; made in house; host or cells: Escherichia coli M15
Description: as §4, §5, §3

[12] = target: T7, K540A HIV-1 RT RNase H (Human immunodeficiency virus type 1 group M subtype B, UniProt P03366, K1139A); assay: RNase H assay, point-mutant K540A RT; format: biochemical
T7 construct: Amino acid substitutions were introduced into the p66 HIV-1 RT subunit of a HIV-1 RT; His; made in house; host or cells: Escherichia coli M15
Description: as §4, §5, §3

[13] = target: T8, N474A HIV-1 RT RNase H (Human immunodeficiency virus type 1 group M subtype B, UniProt P03366, N1073A); assay: RNase H assay, point-mutant N474A RT; format: biochemical
T8 construct: Amino acid substitutions were introduced into the p66 HIV-1 RT subunit of a HIV-1 RT; His; made in house; host or cells: Escherichia coli M15
Description: as §4, §5, §3

[14] = target: T9, W535A HIV-1 RT RNase H (Human immunodeficiency virus type 1 group M subtype B, UniProt P03366, W1134A); assay: RNase H assay, point-mutant W535A RT; format: biochemical
T9 construct: Amino acid substitutions were introduced into the p66 HIV-1 RT subunit of a HIV-1 RT; His; made in house; host or cells: Escherichia coli M15
Description: as §4, §5, §3

[15] = HeLa-CD4-LTR-β-gal cells, CC50 (cytotoxic concentration 50%), 24 h
[16] = Human immunodeficiency virus 1, HeLa-CD4-LTR-β-gal cells, 24 h post infection, read-out: antiviral activity EC50
[17] = anti-RH activity (IC50 ± SD), HIV-1 RT-associated RNase H activity, dose-response curves, no preincubation
[18] = HeLa-CD4-LTR-β-gal cells, supplement CSV, read-out: CC50
[19] = Human immunodeficiency virus 1, 24 h, read-out: antiviral activity EC50
[20] = wt (RH IC50, uM), supplement CSV, mutagenesis study

| SMILES | CC50 at 24 h [1, 15] [µM] | SI (selectivity index = CC50/EC50) [2] | EC50 [2, 16] [µM] | IC50 [3] [µM] | IC50 [4, 17] [µM] | IC50 [5] [µM] | CC50 at 24 h [1, 18] [µM] | further results |
| --- | --- | --- | --- | --- | --- | --- | --- | --- |
| O=C(/C=C/c1ccc2c(c1)c(=O)c(C(=O)O)cn2Cc1ccc(F)cc1)c1ccccc1 [4k, (E)-1-(4-Fluorobenzyl)-4-oxo-6-(3-oxo-3-phenylprop-1-en-1-yl)-1,4-dihydroquinoline-3 carboxylic Acid] | 17 ± 4 | 3.1 | 5.4 ± 3.1 | > 100 | 5.9 ± 0.6 | 3.38 ± 0.42 | – | – |
| O=C(O)c1cn(Cc2ccc(F)cc2)c2ccc(OCc3ccccc3)cc2c1=O [4l, 6-(Benzyloxy)-1-(4-fluorobenzyl)-4-oxo-1,4-dihydroquinoline-3-carboxylic Acid] | > 100 | >8.6 | 11.7 ± 2.5 | 38.5 ± 7.1 | 34 ± 0.1 | 0.41 ± 0.03 | – | EC50 ([2]; Human immunodeficiency virus 1, supplement CSV, read-out: EC50): 11.7 ± 2.15 µM |
| O=C(O)c1cn(Cc2ccc(F)cc2)c2ccc(OCc3ccc4c(c3)OCO4)cc2c1=O [4q, 6-(Benzo[d][1,3]dioxol-5-ylmethoxy)-1-(4-fluorobenzyl)-4-oxo-1,4-dihydroquinoline-3-carboxylic Acid] | > 200 | >17.7 | 11.3 ± 3.5 | 5.1 ± 1.8 | 13.5 | > 100 | > 50 | – |
| O=C(O)c1cn(Cc2ccc(F)cc2)c2ccc(OCc3cccc(Cl)c3Cl)cc2c1=O [4m, 6-((2,3-Dichlorobenzyl)oxy)-1-(4-fluorobenzyl)-4-oxo-1,4-dihydroquinoline-3-carboxylic Acid] | > 200 | >15 | 13.3 ± 4.5 | 5.6 ± 0.6 | 8.19 ± 0.05 | > 100 | > 50 | – |
| CCOC(=O)c1cn(Cc2ccc(F)cc2)c2ccc(OCc3cccc(Cl)c3Cl)cc2c1=O [5m, Ethyl 6-((2,3-Dichlorobenzyl)oxy)-1-(4-fluorobenzyl)-4-oxo-1,4-dihydroquinoline-3-carboxylate] | 21.6 ± 2.8 | 1.2 | 17.8 ± 2.3 | 1.88 ± 0.04 | 24 | 0.05 ± 0.01 | 23.9 ± 4.5 | – |
| O=C(O)/C(O)=C/C(=O)c1cn(Cc2ccc(F)cc2)c2cc(N3CCCC3)ccc2c1=O [compound 2] | – | – | – | – | – | – | – | IC50 [6]: 5.1 µM; IC50 ([7]; read-out: IN inhibitory activity IC50): 0.028 µM |
| O=C(O)c1cn(Cc2ccc(F)cc2)c2ccc(OCc3ccc(Cl)c(Cl)c3)cc2c1=O [4n, 6-((3,4-Dichlorobenzyl)oxy)-1-(4-fluorobenzyl)-4-oxo-1,4-dihydroquinoline-3-carboxylic Acid] | > 200 | >12.4 | 16.1 ± 5.5 | 2 ± 0.8 | 29.5 ± 0.5 | 3.25 ± 0.85 | > 50 | IC50 ([4]; RH IC50 (uM), supplement CSV): 29.5 ± 0.55 µM |
| CCOC(=O)/C(O)=C/C(=O)/C=C/c1cccn1Cc1ccc(F)cc1 [compound 1] | – | – | – | – | – | – | – | IC50 ([7]; supplement CSV, earlier compounds 1 and 2, ref 29−33, read-out: IN ST IC50): 90 µM |
| O=C(O)c1cn(Cc2ccc(F)cc2)c2ccc(OCc3ccc(OCc4ccccc4)cc3)cc2c1=O [4t, 6-((4-(Benzyloxy)benzyl)oxy)-1-(4-fluorobenzyl)-4-oxo-1,4-dihydroquinoline-3-carboxylic Acid] | – | >57.8 | – | 2.2 ± 0.1 | 7.48 ± 0.28 | > 100 | – | CC50 at 24 h ([1]; HeLa-CD4-LTR-β-gal reporter cells, CC50 (cytotoxic concentration 50%), HeLa-CD4-LTR-β-gal cells, 24 h): > 100 µM; CC50 at 24 h ([1]; HeLa-CD4-LTR-β-gal reporter cells, supplement CSV, read-out: CC50): > 16 µM; IC50 [8]: 15.6 ± 1.6 µM; IC50 [9]: 2.9 ± 1.3 µM; EC50 [2, 19]: 1.73 ± 0.47 µM; IC50 [10]: > 100 µM; IC50 [11]: 2.2 ± 1.3 µM; IC50 [12]: 2 ± 1.2 µM; IC50 [13]: 1.16 ± 1.41 µM; IC50 [4, 20]: 1.9 ± 0.4 µM; Fold increase in IC50 compared to wt RT, W535A [14]: > 52.4 fold; IC50 [14]: > 100 µM; W535A (Fold) ([14]; supplement CSV, vs wt): >52.4 |
| O=C(O)c1cn(Cc2ccc(F)cc2)c2ccc(OCc3cccc4ccccc34)cc2c1=O [4o, 1-(4-Fluorobenzyl)-6-(naphthalen-1-ylmethoxy)-4-oxo-1,4-dihydroquinoline-3-carboxylic Acid] | 51 ± 11 | – | – | 11.4 ± 2.6 | 1.51 ± 0.21 | > 100 | – | IC50 [8]: > 100 µM; IC50 [9]: 11.8 ± 1.2 µM; EC50 [2, 19]: 8.4 ± 0.7 µM; IC50 [10]: > 100 µM; IC50 [11]: 19.6 ± 1.24 µM; IC50 [12]: 31.6 ± 1.2 µM; IC50 [13]: 85.8 ± 1.6 µM; IC50 [4, 20]: 5.2 ± 1.1 µM; IC50 [14]: > 100 µM |
| CCOC(=O)c1cn(Cc2ccc(F)cc2)c2ccc(OCc3ccc(Cl)c(Cl)c3)cc2c1=O [5n, Ethyl 6-((3,4-Dichlorobenzyl)oxy)-1-(4-fluorobenzyl)-4-oxo-1,4-dihydroquinoline-3-carboxylate] | 20.6 ± 4.4 | 1.4 | 14.6 ± 3.1 | 24.1 ± 8.6 | 37.2 ± 7.6 | 9.45 ± 0.55 | – | IC50 ([4]; RH IC50 (uM), supplement CSV): 37.2 ± 7.58 µM |
| O=C(O)c1cn(Cc2ccc(F)cc2)c2ccc(OCc3ccc(-c4ccccc4)cc3)cc2c1=O [4s, 6-([1,1′-Biphenyl]-4-ylmethoxy)-1-(4-fluorobenzyl)-4-oxo-1,4-dihydroquinoline-3-carboxylic Acid] | > 100 | >40 | 2.5 ± 1.03 | 11.6 ± 5.5 | 7.47 ± 1.55 | > 250 | > 16 | – |
